Source: patent publication US20260347310A1, “PHENALKYLAMINES AND METHODS OF MAKING AND USING THE SAME” (GILGAMESH PHARMACEUTICALS, INC., priority 2022, published 2026)
Read-outs that look alike come from different tables or passages of the source.

Columns and labels:
[1] = Pharmacokinetics in plasma of rats after oral and intravenous dosing; oral bioavailability; format: in vivo, Sprague Dawley rats; details: rat plasma, racemate, 10% captisol
Method: The pharmacokinetics of disclosed compounds were determined in the plasma of rats after oral and intravenous dosing, with the results presented in Table 13.
Animals. Male Sprague Dawley rats were used in these studies. Animals were randomly assigned to treatment groups and were fasted overnight before oral dosing.
Drugs. The test compound was dissolved in 10% captisol (1) or 10% DMSO and 90% normal saline (2a) and administered intravenously (iv) at 2 mg/kg (1) or 1 mg/kg (2a) or orally (po) at 10 mg/kg (1) or 1 mg/kg (2a), calculated based on freebase, and at a volume of 10 mL/kg body weight for oral administration and 5 mL/kg for IV administration. The compounds were tested as the racemates.
Sample Collection and Bioanalysis. Blood samples were collected through the external jugular vein (via cannulation) at 0.083, 0.25, 0.5, 1, 2, 4, 8, and 24 h post-dose (total 8 time points/rat, 4 rats per administration route). At each time point, ~0.2 mL of blood was withdrawn and transferred into a pre-labeled 0.5-mL micro centrifuge tube containing 4 μL of 200 mM K2EDTA solution as anticoagulant and mixed gently by inverting the tube to facilitate mixing of anticoagulant with the blood. Blood samples were kept on ice until centrifugation. The collected blood samples were centrifuged at 4,000 rpm for 10 min at 4° C. Plasma samples were separated after centrifugation, transferred into pre-labeled tubes, and stored at −70° C. until bioanalysis. For bioanalysis, a 200-μL aliquot of internal standard prepared in acetonitrile (cetirizine, 50 ng/mL) was added (except for blank, where 200 μL of acetonitrile was added) to a 96-well Solvinert filter plate followed by 5 μL of a study plasma sample or spiked calibration standard. The filter plate was then centrifuged for 5 minutes at a speed of 2,500 rpm at 4° C. with a 96-well sample collection plate. Following centrifugation, collected samples were analyzed using a fit-for-purpose LC-MS/MS method, with authentic samples of the analyte used for calibration and identification.
Data Analysis. Pharmacokinetic parameters were estimated using the non-compartmental analysis tool of Phoenix® WinNonlin software (Ver 8.1). The drug concentrations of samples below the lower limit of quantitation (LLOQ) were designated as zero.

[2] = Metabolic stability in dog liver microsomes (DLM); format: in vitro ADME, Beagle dogs; details: for stability in DLM (in words): 1 μM, 0.50 mg protein/mL, 1 mM NADPH, 37 °C, 60 min; for half-life at 1 µM / microsomal CLint at 1 µM: dog liver microsomes 0.50 mg/mL, NADPH 1 mM, test compound 1 μM, 37° C., pH 7.4, 60 min
Method: (§1) Test Compounds. Compounds were prepared as described above.
(§2) DLM Stability. Pooled DLM from adult male Beagle dogs (Xenotech D1000) were used. Microsomal incubations were carried out in multi-well plates. Liver microsomal incubation medium consisted of PBS (100 mM, pH 7.4), MgCl2 (1 mM), and NADPH (1 mM), with 0.50 mg of liver microsomal protein per mL. Control incubations were performed by replacing the NADPH-cofactor system with PBS. Test compounds (1 μM, final solvent concentration 1.0%) were incubated with microsomes at 37° C. with constant shaking. Six time points over 60 minutes were analyzed, with 60 μL aliquots of the reaction mixture being drawn at each time point. The reaction aliquots were stopped by adding 180 μL of cold (4° C.) acetonitrile containing 200 ng/mL tolbutamide and 200 ng/mL labetalol as internal standards (IS), followed by shaking for 10 minutes, and then protein sedimentation by centrifugation at 4,000 rpm for 20 minutes at 4° C. Supernatant samples (80 μL) were diluted with water (240 μL) and analyzed for parent compound remaining using a fit-for-purpose liquid chromatography-tandem mass spectrometry (LC-MS/MS) method.
(§3) Data Analysis. The elimination constant (kel), half-life (t1/2), and intrinsic clearance (CLint) were determined in a plot of […] versus time, using linear regression analysis.

[3] = Metabolic stability in human liver microsomes (HLM); format: in vitro ADME; details: for stability in HLM (in words): 1 μM, 0.50 mg protein/mL, 1 mM NADPH, 37 °C, 60 min; for half-life at 1 µM / microsomal CLint at 1 µM: human liver microsomes 0.50 mg/mL, NADPH 1 mM, test compound 1 μM, 37° C., pH 7.4, 60 min
Method: as §1
as §2, with “HLM” for “DLM”, “and female donors (Corning 452117)” for “Beagle dogs (Xenotech D1000)”
as §3

5-HT2A receptor [4] = biological target: T1, 5-HT2A receptor (Homo sapiens, UniProt P28223); experiment: FLIPR Ca2+ flux functional agonist assay at 5-HT2A; format: cell-based; design: expressed in transfected cells; host or cells: HEK293
Method: Disclosed compounds were tested for agonist activity at several serotonin receptor subtypes (5-HT2A, […], and 5-HT2C) using Ca^2+ flux functional assays, with the results summarized in Table 9.
as §1
Functional Assays at 5-HT2A and 5-HT2B. Agonist activity at 5-HT2A and 5-HT2B receptors was determined using a FLIPR Ca^2+ flux assay at WuXi AppTec (Hong Kong) Limited according to their standard protocols. Briefly, stably transfected cells expressing the receptor of interest (HEK293 for both 5-HT2A and 5-HT2B) were grown and plated in a 384-well plate and incubated at 37° C. and 5% CO2 overnight. A solution of 250 mM probenecid in 1 mL FLIPR assay buffer was prepared fresh. This was combined with a fluorescent dye (Fluo-4 Direct™) to make a final assay concentration of 2.5 mM. Compounds were diluted 1:3.16 for 10 points and 750 nL was added to a 384 well compound plate using ECHO along with 30 μL assay buffer. The fluorescent dye was then added to the assay plate along with assay buffer to a final volume of 40 μL. The cell plate was incubated for 50 min at 37° C. and 5% CO2 and placed into the FLIPR Tetra along with the compound plate. 10 μL of references and compounds were then transferred from the compound plate into the cell plate and the fluorescent signal was read.

5-HT2A receptor [5] = biological target: T1, 5-HT2A receptor; experiment: Radioligand binding at 5-HT2A ([3H]ketanserin); design: expressed in transfected cells
Method: The binding affinities of disclosed compounds at the ketanserin binding site of the 5-HT2A receptor, the LSD binding site of the 5-HT2B receptor, and the mesulergine binding site of the 5-HT2C receptor were determined in radioligand binding experiments.
Method. The affinity of the test compounds for 5-HT2A, 5-HT2B, and 5-HT2C receptors was determined in radioligand binding experiments with [^3H]ketanserin, [^3H]LSD, and [^3H]mesulergine, respectively, by WuXi AppTec (Hong Kong) Limited, using methods adapted from the literature and under conditions described in Table 7.

T1 sequence (P28223 whole entry): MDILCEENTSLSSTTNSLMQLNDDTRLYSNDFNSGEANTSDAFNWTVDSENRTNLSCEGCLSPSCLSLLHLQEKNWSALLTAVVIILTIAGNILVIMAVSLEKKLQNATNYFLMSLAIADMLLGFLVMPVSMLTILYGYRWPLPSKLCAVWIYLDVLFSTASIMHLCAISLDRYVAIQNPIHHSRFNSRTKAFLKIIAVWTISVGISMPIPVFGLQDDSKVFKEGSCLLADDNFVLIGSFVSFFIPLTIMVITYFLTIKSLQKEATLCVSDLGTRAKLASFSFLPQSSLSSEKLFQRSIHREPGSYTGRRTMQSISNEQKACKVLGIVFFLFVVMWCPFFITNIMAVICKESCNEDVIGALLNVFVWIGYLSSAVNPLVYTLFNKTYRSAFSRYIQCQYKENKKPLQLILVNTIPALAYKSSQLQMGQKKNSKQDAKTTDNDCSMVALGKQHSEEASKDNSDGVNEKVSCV

| Compound | bioavailability ([1]; IV 2 mg/kg and PO 10 mg/kg, read-out: F (absolute oral bioavailability)) | C0 ([1]; IV 2 mg/kg) | AUC(0-t) ([1]; IV 2 mg/kg, read-out: AUC0-last (iv)) | half-life ([1]; IV 2 mg/kg, read-out: t1/2 (iv) (converted)) | Cmax ([1]; PO 10 mg/kg, fasted) | AUC(0-t) ([1]; PO 10 mg/kg, fasted, read-out: AUC0-last (po)) | half-life ([1]; PO 10 mg/kg, fasted, read-out: t1/2 (po) (converted)) | stability in DLM (in words) [2] | half-life at 1 µM [2] | microsomal CLint at 1 µM [2] | stability in HLM (in words) [3] | half-life at 1 µM [3] | microsomal CLint at 1 µM [3] | EC50 (5-HT2A receptor [4]) | agonist activity at 5-HT2A (in words) (5-HT2A receptor [4]; Ca2+ flux, potency or efficacy) | Emax (5-HT2A receptor [4]; HEK293, read-out: 5-HT2A % Act @ Max Dose) | Ki (5-HT2A receptor [5]) | binding at 5-HT2A receptors (in words) (5-HT2A receptor [5]; [3H]ketanserin) |
| --- | --- | --- | --- | --- | --- | --- | --- | --- | --- | --- | --- | --- | --- | --- | --- | --- | --- | --- |
| CCCCCCc1cc(OC)c(CC(N)CC)cc1OC (racemic) [Compound 1, 1-(4-hexyl-2,5-dimethoxyphenyl)butan-2-amine] | 8% | 389 ng/mL | 354 ng·h/mL | 2.16 h | 35.1 ng/mL | 138 ng·h/mL | 2.63 h |  |  |  |  |  |  |  |  |  |  |  |
| [2H]C([2H])([2H])CCCCCc1cc(OC)c(CC(N)CC)cc1OC (stereo not drawn) [Compound 3a, 1-(4-(hexyl-6,6,6-d3)-2,5-dimethoxyphenyl)butan-2-amine] |  |  |  |  |  |  |  | modestly greater stability than 1R or 1S | 0.557 h | 41.5 µL/min/mg | intermediate stability | 0.517 h | 44.7 µL/min/mg |  |  |  |  |  |
| CCC(N)Cc1cc(OC)c(CCCCC(C)(F)F)cc1OC (stereo not drawn) [Compound 2b, 1-(4-(5,5-difluorohexyl)-2,5-dimethoxyphenyl)butan-2-amine] |  |  |  |  |  |  |  | significantly higher stability compared to 1R and 1S | 1.19 h | 19.4 µL/min/mg | significantly higher stability compared to 1R and 1S | > 2.42 h | < 9.6 µL/min/mg | 5060 nM | substantially less potent than 1R and 1S in the 5-HT2A FLIPR assay | 71.3% | 9.52 nM | potent ligands for 5-HT2A |
